We go through 31 compounds from patent publication US8304419B2, “Chemical compounds” (priority 2007, dated 2012).

The structures appear in SMILES notation. pIC50: −log10 of the molar value. Structures can show the parent of a compound that is named as a salt.

The first experiment relates to HIV wild type (WTRVA). Put plainly: HeLa cell assay, wild type virus (WTRVA). The arrangement: scale not given here. As to conditions: Human immunodeficiency virus 1, HeLa, HeLa cell assay; read-out: IC50 against WTRVA. The format is cell-based, HIV-1.
Regarding `Cc1cc(C#N)cc(Oc2c(Cl)ccc(CNC(=O)c3[nH]cnc3Cl)c2F)c1` [Example 145, 4-chloro-N-({4-chloro-3-[(3-cyano-5-methylphenyl)oxy]-2-fluorophenyl}methyl)-1H-imidazole-5-carboxamide], the pIC50 is more than 8.00. Same read-out and setting: then `N#Cc1cc(Cl)cc(Oc2c(Cl)ccc(CNC(=O)c3[nH]cnc3Cl)c2F)c1Cl` [Example 144, 4-chloro-N-({4-chloro-3-[(2,5-dichloro-3-cyanophenyl)oxy]-2-fluorophenyl}methyl)-1H-imidazole-5-carboxamide], with more than 8.00. For the compound `C=CCc1cc(C#N)cc(Oc2c(Cl)ccc(CNC(=O)c3[nH]cnc3Cl)c2F)c1` [Example 156, 4-chloro-N-[(4-chloro-3-{[3-cyano-5-(2-propen-1-yl)phenyl]oxy}-2-fluorophenyl)methyl]-1′-1H-imidazole-5-carboxamide], the pIC50 was more than 8.00. On to `CCc1ccc(CNC(=O)c2[nH]cnc2Cl)c(F)c1Oc1cc(Cl)cc(C#N)c1` [Example 250, 4-chloro-N-({3-[(3-chloro-5-cyanophenyl)oxy]-4-ethyl-2-fluorophenyl}methyl)-1H-imidazole-5-carboxamide], for which the pIC50 was more than 8.00. As to `N#Cc1cc(Cl)cc(Oc2c(Cl)ccc(CNC(=O)c3[nH]ccc3Br)c2F)c1` [Example 204, 3-bromo-N-({4-chloro-3-[(3-chloro-5-cyanophenyl)oxy]-2-fluorophenyl}methyl)-1H-pyrrole-2-carboxamide], the pIC50 is more than 8.00. With `Cc1nc(Cl)c(C(=O)NCc2ccc(Cl)c(Oc3cc(Cl)cc(C#N)c3Cl)c2F)[nH]1` [Example 306, 4-chloro-N-({4-chloro-3-[(2,5-dichloro-3-cyanophenyl)oxy]-2-fluorophenyl}methyl)-2-methyl-1H-imidazole-5-carboxamide trifluoroacetate], the pIC50 is more than 8.00.

In the case of `CCc1cc(Cl)cc(Oc2c(Cl)ccc(CNC(=O)c3[nH]cnc3Cl)c2F)c1` [Example 290, 4-chloro-N-({4-chloro-3-[(3-chloro-5-ethylphenyl)oxy]-2-fluorophenyl}methyl)-1H-imidazole-5-carboxamide], the pIC50 is more than 8.00. In the case of `Cc1nc(Br)c(C(=O)NCc2cc(Br)c(Br)c(Oc3cc(Cl)cc(C#N)c3)c2F)[nH]1` [Example 234, 4-bromo-N-({4,5-dibromo-3-[(3-chloro-5-cyanophenyl)oxy]-2-fluorophenyl}methyl)-2-methyl-1H-imidazole-5-carboxamide trifluoroacetate], the pIC50 is more than 8.00.

`N#Cc1cc(Cl)cc(Oc2c(C(F)F)ccc(CNC(=O)c3[nH]c(N)nc3Cl)c2F)c1` [Example 253, 2-amino-4-chloro-N-{[3-[(3-chloro-5-cyanophenyl)oxy]-4-(difluoromethyl)-2-fluorophenyl]methyl}-1H-imidazole-5-carboxamide]: the pIC50 was more than 8.00.

As to `Cc1nc(Cl)c(C(=O)NCc2ccc(C3CC3)c(Oc3cc(Cl)cc(C#N)c3)c2F)[nH]1` [Example 270, 4-Chloro-N-({3-[(3-chloro-5-cyanophenyl)oxy]-4-cyclopropyl-2-fluorophenyl}methyl)-2-methyl-1H-imidazole-5-carboxamide], the pIC50 was more than 8.00. Still for that read-out and setting: in the case of `N#Cc1cc(Cl)cc(Oc2c(Br)ccc(CNC(=O)c3[nH]c(CO)nc3Cl)c2F)c1` [Example 241, N-({4-bromo-3-[(3-chloro-5-cyanophenyl)oxy]-2-fluorophenyl}methyl)-4-chloro-2-(hydroxymethyl)-1H-imidazole-5-carboxamide] it was more than 8.00; in that of `N#C/C=C/c1cc(Cl)cc(Oc2c(Cl)ccc(CNC(=O)c3[nH]cnc3Cl)c2F)c1` [Example 291, 4-chloro-N-{[4-chloro-3-({3-chloro-5-[(E)-2-cyanoethenyl]phenyl}oxy)-2-fluorophenyl]methyl}-1H-imidazole-5-carboxamide], more than 8.00.

The experiment is the same for the next values; noted with them: Human immunodeficiency virus 1, HeLa, HeLa-CD4-LTR-β-gal cells, wild type virus; read-out: WTRVA activity level.
Take `CSc1ncc(C(=O)NCc2ccc(Cl)c(Oc3cc(Cl)cc(C#N)c3)c2F)[nH]1` [Example 66, N-({4-chloro-3-[(3-chloro-5-cyanophenyl)oxy]-2-fluorophenyl}methyl)-2-(methylthio)-1H-imidazole-4-carboxamide trifluoroacetate]: the pIC50 is 6.00 to 8.00. The same measure, in the same setting: then `N#Cc1cc(Cl)cc(Oc2c(Cl)ccc(CNC(=O)c3snnc3-c3ccccc3)c2F)c1` [Example 99, N-({4-chloro-3-[(3-chloro-5-cyanophenyl)oxy]-2-fluorophenyl}methyl)-4-phenyl-1,2,3-thiadiazole-5-carboxamide], with less than 6.00; and `N#Cc1cc(Cl)cc(Oc2c(Cl)ccc(CNC(=O)c3cc4cc(OC(F)(F)F)ccc4[nH]3)c2F)c1` [Example 27, N-({4-chloro-3-[(3-chloro-5-cyanophenyl)oxy]-2-fluorophenyl}methyl)-5-[(trifluoromethyl)oxy]-1H-indole-2-carboxamide], with 6.00 to 8.00; and `N#Cc1cc(Cl)cc(Oc2c(Cl)ccc(CNC(=O)c3cc4cc(OCCN5CCOCC5)ccc4[nH]3)c2F)c1` [Example 103, N-({4-chloro-3-[(3-chloro-5-cyanophenyl)oxy]-2-fluorophenyl}methyl)-5-{[2-(4-morpholinyl)ethyl]oxy}-1H-indole-2-carboxamide], with more than 8.00. On to `COc1ccc2cc(C(=O)NCc3ccc(Cl)c(Oc4cc(Cl)cc(C#N)c4)c3F)[nH]c2c1` [Example 21, N-({4-chloro-3-[(3-chloro-5-cyanophenyl)oxy]-2-fluorophenyl}methyl)-6-(methyloxy)-1H-indole-2-carboxamide], for which the pIC50 is 6.00 to 8.00.

For `CN(Cc1ccc(Cl)c(Oc2cc(Cl)cc(C#N)c2)c1F)C(=O)c1ncc[nH]1` [Example 130, N-({4-chloro-3-[(3-chloro-5-cyanophenyl)oxy]-2-fluorophenyl}methyl)-N-methyl-1H-imidazole-2-carboxamide], the pIC50 is more than 8.00.

Consider `CCN(CC)S(=O)(=O)c1c[nH]c(C(=O)NCc2ccc(Cl)c(Oc3cc(Cl)cc(C#N)c3)c2F)c1` [Example 76, N-({4-chloro-3-[(3-chloro-5-cyanophenyl)oxy]-2-fluorophenyl}methyl)-4-[(diethylamino)sulfonyl]-1H-pyrrole-2-carboxamide trifluoroacetate], for which the pIC50 was 6.00 to 8.00. Still for that read-out and setting: then `N#Cc1cc(Cl)cc(Oc2c(Cl)ccc(CNC(=O)c3nc4ccc([N+](=O)[O-])cc4[nH]3)c2F)c1` [Example 124, N-({4-chloro-3-[(3-chloro-5-cyanophenyl)oxy]-2-fluorophenyl}methyl)-5-nitro-1H-benzimidazole-2-carboxamide], with 6.00 to 8.00; and `Cc1nn(-c2ccccc2)nc1C(=O)NCc1ccc(Cl)c(Oc2cc(Cl)cc(C#N)c2)c1F` [Example 96, N-({4-chloro-3-[(3-chloro-5-cyanophenyl)oxy]-2-fluorophenyl}methyl)-5-methyl-2-phenyl-2H-1,2,3-triazole-4-carboxamide trifluoroacetate], with 6.00 to 8.00. As for `N#Cc1cc(Cl)cc(Oc2c(Cl)ccc(CNC(=O)c3cc4cc(O)ccc4[nH]3)c2F)c1` [Example 26, N-({4-chloro-3-[(3-chloro-5-cyanophenyl)oxy]-2-fluorophenyl}methyl)-5-hydroxy-1H-indole-2-carboxamide], the pIC50 was more than 8.00. Same read-out and setting: then `Cc1cc(C)c(C(=O)NCc2ccc(Cl)c(Oc3cc(Cl)cc(C#N)c3)c2F)[nH]1` [Example 62, N-({4-chloro-3-[(3-chloro-5-cyanophenyl)oxy]-2-fluorophenyl}methyl)-3,5-dimethyl-1H-pyrrole-2-carboxamide trifluoroacetate], with more than 8.00.

For `COc1ccc2cc(C(=O)NCc3ccc(Cl)c(Oc4cc(Cl)cc(C#N)c4)c3)[nH]c2c1` [Example 7, N-({4-chloro-3-[(3-chloro-5-cyanophenyl)oxy]phenyl}methyl)-6-(methyloxy)-1H-indole-2-carboxamide], the pIC50 is 6.00 to 8.00. With `Cc1ccc2[nH]c(C(=O)NCc3ccc(Cl)c(Oc4cc(Cl)cc(C#N)c4)c3F)c(C)c2c1` [Example 52, N-({4-chloro-3-[(3-chloro-5-cyanophenyl)oxy]-2-fluorophenyl}methyl)-3,5-dimethyl-1H-indole-2-carboxamide trifluoroacetate], the pIC50 is 6.00 to 8.00. The same measure, in the same setting: in the case of `COc1ccc2[nH]c(C(=O)NCc3ccc(Cl)c(Oc4cc(Cl)cc(C#N)c4)c3)cc2c1` [Example 10, N-({4-chloro-3-[(3-chloro-5-cyanophenyl)oxy]phenyl}methyl)-5-(methyloxy)-1H-indole-2-carboxamide] it was 6.00 to 8.00; in that of `N#Cc1cc(Cl)cc(Oc2c(Cl)ccc(CNC(=O)c3cn[nH]c3)c2F)c1` [Example 100, N-({4-chloro-3-[(3-chloro-5-cyanophenyl)oxy]-2-fluorophenyl}methyl)-1H-pyrazole-4-carboxamide trifluoroacetate], more than 8.00. `COc1cccc2[nH]c(C(=O)NCc3ccc(Cl)c(Oc4cc(Cl)cc(C#N)c4)c3F)cc12` [Example 34, N-({4-chloro-3-[(3-chloro-5-cyanophenyl)oxy]-2-fluorophenyl}methyl)-4-(methyloxy)-1H-indole-2-carboxamide]: the pIC50 was more than 8.00.

For `N#Cc1cc(Cl)cc(Oc2c(Cl)ccc(CNC(=O)c3[nH]c4ccccc4c3Br)c2F)c1` [Example 53, 3-bromo-N-({4-chloro-3-[(3-chloro-5-cyanophenyl)oxy]-2-fluorophenyl}methyl)-1H-indole-2-carboxamide], the pIC50 was 6.00 to 8.00. In the case of `Cn1c(C(=O)NCc2ccc(Cl)c(Oc3cc(Cl)cc(C#N)c3)c2F)cc2ccccc21` [Example 45, N-({4-chloro-3-[(3-chloro-5-cyanophenyl)oxy]-2-fluorophenyl}methyl)-1-methyl-1H-indole-2-carboxamide], the pIC50 was 6.00 to 8.00. Regarding `COc1ccc2[nH]c(C(=O)NCc3ccc(Cl)c(Oc4cc(Cl)cc(C#N)c4)c3F)c(NC(C)=O)c2c1` [Example 56, 3-(acetylamino)-N-({4-chloro-3-[(3-chloro-5-cyanophenyl)oxy]-2-fluorophenyl}methyl)-5-(methyloxy)-1H-indole-2-carboxamide trifluoroacetate], the pIC50 was 6.00 to 8.00.
